Experimental data: patent publication US20200368260A1, “USE OF BENZOPYRAN COMPOUND IN PREPARATION OF PRODUCT FOR REGULATING LIPID METABOLISM AND COMPOSITION OF THE SAME” (priority 2019, published 2020)

Assays:
Format in all cases: cell-based, human
HepG2 cells = assay: MTT cell viability experiment, effect of treatment time (oleic acid NAFLD cell model); settings: for cell viability among several other groups of treatment time: other treatment times (0, 12, 24, 48 h); for cell viability: treated for 6 h, FIG. 3; for cytotoxicity with the increase in time: treatment up to 48 h
Description: The HepG2 cells were seeded into a 96-well culture plate at 1×10^4 cells per well, incubated in a DMEM culture medium containing 10% fetal bovine serum for 12 h until complete confluence of the cells, and then the culture medium was replaced by respective concentrations of 0, 0.5, 1, 1.5, 2, 2.5, 3, 3.5, 4 mM of oleic acid formulated with a serum-free culture medium to treat the cells for 0, 24, 48, and 72 hours, with 4 replicate wells being set for each concentration. After the completion of the incubation, 10 μL of a freshly prepared MTT solution at a final concentration of 5 mg/mL was added into each well and the culture was continued for 4 h. Then, the liquid in the culture well was pipetted off to terminate the reaction. Each well was added with 100 μL of DMSO, and shaken fully on a plate shaker for […] such that the crystalline was fully dissolved, and an A490 absorbance was measured on a microplate reader. The cell proliferation viability was calculated according to the following formula.
Cell proliferation viability (%)=(the OD of drug group/the OD of blank group)×100%
1. The culture, model establishment and experimental steps of the cells were operated according to 1.2.1. When the cells were cultured to the confluence of 70%, the cells were treated with 0.5 mM for 24 h to establish a cell model of nonalcoholic fatty liver disease. The anthocyanin compound mother liquor was diluted to 10 μM to treat the cells for 0, 6, 12, 24, and 48 h. The MTT cell proliferation viability experiment determined the optimal dosing time.

high-fat HepG2 cells [1] = assay: Total cholesterol (TC) content in the cells, TC kit; settings: for level of TC in a high fat cell: FIGS. 4A, 5A; for level of TC, compared with control group and low dose group: medium and high doses
Description: (§1) 2. The culture, model establishment and experimental steps of the cells were operated according to the above steps. The anthocyanin compound mother liquor was diluted to 0, 0.1, 1, 10, 50, and 100 μM to treat the high-fat HepG2 cells, respectively.
(§2) 3. The culture solution was pipetted off, gently washed with PBS for 3 times, and added with trypsin to digest the cells for 1 min The cell suspension was pipetted into a 1.5 mL sterile EP tube, centrifuged at 1000 rpm for 10 minutes, the supernatant was discarded, the pellet was added with an appropriate amount of PBS, ultrasonically crushed under the condition of an ice-water bath, and the prepared homogenate was not centrifuged and was ready for determination.
The total cholesterol (TC) content in the cells was determined according to the operating instructions of a TC kit. The protein content in the cells was determined by a BCA protein concentration kit, and the total cholesterol content in the cells was calibrated with the protein content.

high-fat HepG2 cells [2] = assay: Triglyceride (TG) content of the cells, TG kit; settings: for level of TG in a high fat cell: FIGS. 4B, 5B; for level of TG, compared with control group and low dose group: medium and high doses
Description: as §1, §2
The intracellular triglyceride content was determined according to the operating instructions of a triglyceride (TG) kit. The protein content in the cells was determined by a BCA protein concentration kit, and the triglyceride content in the cells was calibrated with the protein content.

high-fat HepG2 cells [3] = assay: Cellular alanine aminotransferase (ALT) content, ALT kit; settings: for level of ALT in a high fat cell: FIGS. 4C, 5C; for level of ALT, compared with control group and low dose group: medium and high doses
Description: as §1, §2
The intracellular alanine aminotransferase (ALT) content was determined according to the operating instructions of an ALT kit.

high-fat HepG2 cells [4] = assay: Cellular aspartate aminotransferase (AST) content, AST kit; settings: for level of AST in a high fat cell: FIGS. 4D, 5D; for level of AST, compared with control group and low dose group: medium and high doses
Description: as §1, §2
The intracellular aspartate aminotransferase (AST) content was determined according to the operating instructions of an AST kit. 1.2.4 Effect of petunidin-3-O-β-D glucoside and malvidin-3-O-β-D glucose on autophagy of HepG2 cells

APG7 = assay: Q-PCR, mRNA expression in oleic acid induced HepG2 cells; settings: for mRNA level of Apg7: high dose group; for mRNA expression of Apg7: low and medium doses
Text: (§3) The culture, model establishment and drug treatment manners of the cells were the same as those in 1.2.4. After the completion of the treatment, the cells were collected, total RNA was extracted, then cDNA was synthesized by reverse transcription, and finally, the change of the transcription level of autophagy-related genes of the HepG2 cell in a nonalcoholic fatty liver disease model under the actions of petunidin-3-O-β-D glucoside and malvidin-3-O-β-D glucoside was detected by the real-time fluorescent quantitative PCR method, where the following method can be adopted:
(§4) 1. After the completion of drug treatment, the cells were washed with PBS for 2 times, added with 1 mL Trizol per about 1×10^7 cells, then pipetted up and down with a 1 mL pipette gun (free of RNA enzymes) until the liquid was clear and had no cell aggregate, transferred into a […] RNA-enzyme-free EP tube, mixed well by inverting up and down for 10 times, and lysed for 5 minutes at room temperature.
(§5) 1. The first strand of cDNA was synthesized by using 800 ng of total RNA as a template and a total system of 20 μL. A nuclease-free PCR tube in the ice bath was added with the following reagents:
(§6) 5. A reverse transcription reaction was carried out on a PCR machine under the following conditions: incubation at 25° C. for 10 min, cDNA synthesis at 50° C. for 30 min, and reaction termination at 85° C. for 5 min. The resulting cDNA product was stored at −20° C.
(§7) 1. According to the gene sequence provided in the literature, the primers were synthesized by Sangon Biotech (Shanghai) Co., Ltd., and the primer sequences of β-actin, APG5L, Apg7, p62 , Bcl-1 and FASN were shown in the table below:
(§8) 2. The above reaction solution was placed into a real-time quantitative PCR instrument for amplification, and the PCR reaction conditions were as shown in the table below:
(§9) For the expression of the target gene, the difference was corrected with a reference gene β-actin by a Ct value comparison method, and the changing multiple was 2^−ΔΔCt. The calculation formula was: the changing multiple=2^−ΔΔCt, where ΔΔCt=(Ct of the target gene−Ct of the reference gene) the drug treatment group−(Ct of the target gene−Ct of the reference gene) control.

APGSL = assay: as above
Text: as §3, §4, §5, §6, §7, §8, §9

Bcl-1 = assay: as above
Text: as §3, §4, §5, §6, §7, §8, §9

Fas = assay: as above
Text: as §3, §4, §5, §6, §7, §8, §9

p62 = assay: as above; settings: for mRNA level of p62: high dose group; for mRNA expression of p62: low and medium doses
Text: as §3, §4, §5, §6, §7, §8, §9

SMILES	cell viability among several other groups of treatment time (HepG2 cells)	cell viability (HepG2 cells)	cytotoxicity with the increase in time (HepG2 cells)	level of TC in a high fat cell (high-fat HepG2 cells [1])	level of TC, compared with control group and low dose group (high-fat HepG2 cells [1])	level of TG in a high fat cell (high-fat HepG2 cells [2])	level of TG, compared with control group and low dose group (high-fat HepG2 cells [2])	level of ALT in a high fat cell (high-fat HepG2 cells [3])	level of ALT, compared with control group and low dose group (high-fat HepG2 cells [3])	level of AST in a high fat cell (high-fat HepG2 cells [4])	level of AST, compared with control group and low dose group (high-fat HepG2 cells [4])	mRNA level of Apg7 (APG7)	mRNA expression of Apg7 (APG7)	mRNA level of APGSL (APGSL)	mRNA expression level of Bcl-1 (Bcl-1)	mRNA expression level of Fas (Fas)	mRNA level of p62 (p62)	mRNA expression of p62 (p62)
COc1cc(-c2[o+]c3cc(O)cc(O)c3cc2O[C@@H]2O[C@H](CO)[C@@H](O)[C@H](O)[C@H]2O)cc(OC)c1O [malvidin-3-O-β-D glucoside]	no significant difference	significantly increased	not cytotoxic	reduce	very significant reduction	reduce	very significant reduction	reduce	very significant reduction	reduce	very significant reduction	up-regulate	reduced	up-regulate	significantly decrease	significantly decrease	up-regulate	reduced
COc1cc(-c2[o+]c3cc(O)cc(O)c3cc2O[C@@H]2O[C@H](CO)[C@@H](O)[C@H](O)[C@H]2O)cc(O)c1O [petunidin-3-O-β-D glucoside]	no significant difference	significantly increased	not cytotoxic	reduce	very significant reduction	reduce	very significant reduction	reduce	very significant reduction	reduce	very significant reduction	up-regulate	reduced	up-regulate	significantly decrease	significantly decrease	up-regulate	reduced
